Here are results for five compounds from paper PMC9854539, “QSAR Studies, Molecular Docking, Molecular Dynamics, Synthesis, and Biological Evaluation of Novel Quinolinone-Based Thiosemicarbazones against Mycobacterium tuberculosis” (Antibiotics, 2022).

Converted amounts (≈) assume the structure as drawn.

Common to all, as to type: cell-based, Mycobacterium tuberculosis
The subject of one test is M. tuberculosis Orphan. The test is described as follows: Spot culture growth inhibition assay (SPOTi), MIC. As to conditions: Mycobacterium tuberculosis; multiresistant to isoniazid and rifampicin.
In the next test the test system is M. tuberculosis Beijing. The test is described as follows: Spot culture growth inhibition assay (SPOTi), MIC. As to conditions: multiresistant to isoniazid and rifampicin.
Test [1] has as its system M. tuberculosis ATCC 35822. The test is described as follows: Spot culture growth inhibition assay (SPOTi), MIC. The conditions noted are these: isoniazid resistant.
The subject of a further test is M. tuberculosis LAM 9. The test is described as follows: Spot culture growth inhibition assay (SPOTi), MIC. As to conditions: multiresistant to isoniazid and rifampicin.
Test [2] relates to M. tuberculosis ATCC 35838. Nature of the test: Spot culture growth inhibition assay (SPOTi), MIC. As to conditions: rifampicin resistant.
A further test relates to M. tuberculosis Haarlem. The test is described as follows: Spot culture growth inhibition assay (SPOTi), MIC. The conditions noted are these: multiresistant to isoniazid and rifampicin.
In test [3] the test system is multiresistant M. tuberculosis. The conditions noted are these: summary of Table 9.
[4] abbreviates: Mycobacterium tuberculosis, ATCC35822.
The mark [5] stands for this setting: Mycobacterium tuberculosis, LAM9.
Where [6] appears, read: Mycobacterium tuberculosis, ATCC35838.

Take `CC(/C=C/c1cc2cc(C)ccc2[nH]c1=O)=N\NC(N)=S` [Compound 11b, (E)-2-((E)-4-(6-Methyl-2-oxo-1,2-dihydroquinolin-3-yl)but-3-en-2-ylidene)hydrazine-1-carbothioamide]: the MIC is 33.3 µM (≈ 10 µg/mL) against M. tuberculosis Orphan; 1.66 µM (≈ 0.499 µg/mL) in the test with M. tuberculosis Beijing (Mycobacterium tuberculosis); 3.33 µM (≈ 1 µg/mL) in test [1] (setting [4]); 16.6 µM (≈ 5 µg/mL) in the test on M. tuberculosis LAM 9 (setting [5]); 3.33 µM (≈ 1 µg/mL) in test [2] (setting [6]); 3.33 µM (≈ 1 µg/mL) against M. tuberculosis Haarlem (Mycobacterium tuberculosis).
Turning to `CC(/C=C/c1cc2cccc(C)c2[nH]c1=O)=N\NC(N)=S` [Compound 11c, (E)-2-((E)-4-(8-Methyl-2-oxo-1,2-dihydroquinolin-3-yl)but-3-en-2-ylidene)hydrazine-1-carbothioamide], the MIC with M. tuberculosis Orphan came out at 66.6 µM (≈ 20 µg/mL); in the test on M. tuberculosis Beijing (Mycobacterium tuberculosis), 0.33 µM (≈ 0.0991 µg/mL); in test [1] (setting [4]), 0.33 µM (≈ 0.0991 µg/mL); against M. tuberculosis LAM 9 (setting [5]), 3.29 µM (≈ 0.988 µg/mL); in test [2] (setting [6]), 1.66 µM (≈ 0.499 µg/mL); against M. tuberculosis Haarlem (Mycobacterium tuberculosis) it was 33.3 µM (≈ 10 µg/mL).
In the case of `CC(/C=C/c1cc2ccc(Cl)cc2[nH]c1=O)=N\NC(N)=S` [Compound 11d, (E)-2-((E)-4-(7-Chloro-2-oxo-1,2-dihydroquinolin-3-yl)but-3-en-2-ylidene)hydrazine-1-carbothioamide], the MIC against M. tuberculosis Orphan came to 6.23 µM (≈ 2 µg/mL); with M. tuberculosis Beijing (Mycobacterium tuberculosis) it was 0.33 µM (≈ 0.106 µg/mL); in test [1] (setting [4]), 6.23 µM (≈ 2 µg/mL); against M. tuberculosis LAM 9 (setting [5]) it was 3.12 µM (≈ 1 µg/mL); in test [2] (setting [6]) it was 3.33 µM (≈ 1.07 µg/mL); in the test with M. tuberculosis Haarlem (Mycobacterium tuberculosis) it was 1.56 µM (≈ 0.5 µg/mL).
`CC(/C=C/c1cc2cc(Br)ccc2[nH]c1=O)=N\NC(N)=S` [Compound 11e, (E)-2-((E)-4-(6-Bromo-2-oxo-1,2-dihydroquinolin-3-yl)but-3-en-2-ylidene)hydrazine-1-carbothioamide]: the MIC with M. tuberculosis Orphan turned out to be 27.4 µM (≈ 10 µg/mL); with M. tuberculosis Beijing (Mycobacterium tuberculosis), 0.27 µM (≈ 0.0986 µg/mL); in test [1] (setting [4]), 1.37 µM (≈ 0.5 µg/mL); in the test on M. tuberculosis LAM 9 (setting [5]), 2.74 µM (≈ 1 µg/mL); in test [2] (setting [6]) it was 2.73 µM (≈ 0.997 µg/mL); against M. tuberculosis Haarlem (Mycobacterium tuberculosis) it was 27.4 µM (≈ 10 µg/mL).
Regarding `CC1COc2c(N3CCN(C)CC3)c(F)cc3c(=O)c(C(=O)O)cn1c23` (stereo not drawn) [Oxafloxacin, reference compound], the MIC (in the test with M. tuberculosis Beijing; in test [1]; in the test with M. tuberculosis LAM 9; in test [2]; with M. tuberculosis Haarlem) was 2.76 µM (≈ 0.997 µg/mL) throughout. Besides, the “MIC against the different families of multiresistant M. tuberculosis” value in test [3] was found to be 2.76 µM.
